Test results: patent publication US20240197726A1, “NOVEL TETRAHYDROISOQUINOLINE ALKALOID COMPOUND CONTAINING MACROCYCLE” (THE UNIVERSITY OF TOKYO, priority 2021, published 2024)
Like-named read-outs stand apart in the source and are kept apart here.

Key:
Type in all cases: cell-based
[1] = tested on: BSY-1 breast cancer cells; experiment: antitumor activity, sulforhodamine B cell growth assay, BSY-1
Experimental: (§1) The THIQ compound containing a macrocyclic structure of the present invention was administered to various cancer cell lines, and the antitumor activity (Go value) was observed. Specifically, verification was performed according to the literature (Yamori, T.; Matsunaga, A.; Sato, S.; Yamazaki, K.; Komi, A.; Ishizu, K. et al. Cancer Res. 1999, 59, 4042) by the following procedure.
(§2) Cells were plated at an appropriate density in a 96-well plate in RPMI 1640 together with 5% fetal bovine serum, and adhered overnight. The cells were exposed to a drug for 48 hours. Then, according to the sulforhodamine B assay described by Skehan et al (Skehan P., Storeng R., Scudiero D., Monks A., McMahon J., Vistica D., Warren J. T., Bokesch H., Kenney S., Boyd M. R. J Natl. Cancer Inst, 1990, 82, 1107-1112), the cell growth rate was measured. The absorbance of the control well (C) and the test well (T) was measured at 525 nm. In addition, the time at which the drug was added was set as time 0, and the absorbance for the test well (T0) was measured. Using these measured values, the cell growth inhibitory effect (% growth=PG) was calculated by the following formula at each concentration of the drug.
(§3) (T<T0): PG=100×[(T−T0)/T]
(§4) The PG values determined above for each cell line were plotted against the concentration (logarithm) on a semi-logarithmic graph, and summarized for each visceral cancer. Concentrations at which the dose-response curve of each cell line crossed the horizontal line of PG=50%, 0%, or −50% were calculated. These concentrations were defined as Log GI50, Log TGI, and Log LC50. Actually, using two data points of the drug concentration before and after crossing each horizontal line, the drug concentration (logarithmic value) at the intersection of the straight line connecting the two points and the horizontal line for each PG was calculated.

[2] = tested on: HBC-5 breast cancer cells; experiment: antitumor activity, sulforhodamine B cell growth assay, HBC-5; details: HBC5
Experimental: as §1, §2, §3, §4

[3] = tested on: MCF-7 breast cancer cells; experiment: antitumor activity, sulforhodamine B cell growth assay, MCF-7; details: Homo sapiens, MCF7
Experimental: as §1, §2, §3, §4

[4] = tested on: MDA-MB-231 breast cancer cells; experiment: antitumor activity, sulforhodamine B cell growth assay, MDA-MB-231; details: Homo sapiens
Experimental: as §1, §2, §3, §4

[5] = tested on: U251 central nervous system cancer cells; experiment: antitumor activity, sulforhodamine B cell growth assay, U251; details: Homo sapiens, U-251
Experimental: as §1, §2, §3, §4

[6] = tested on: SF-268 central nervous system cancer cells; experiment: antitumor activity, sulforhodamine B cell growth assay, SF-268; details: Homo sapiens
Experimental: as §1, §2, §3, §4

[7] = tested on: SF-295 central nervous system cancer cells; experiment: antitumor activity, sulforhodamine B cell growth assay, SF-295; details: Homo sapiens
Experimental: as §1, §2, §3, §4

[8] = tested on: SF-539 central nervous system cancer cells; experiment: antitumor activity, sulforhodamine B cell growth assay, SF-539; details: Homo sapiens
Experimental: as §1, §2, §3, §4

[9] = tested on: HCC2998 colorectal cancer cells; experiment: antitumor activity, sulforhodamine B cell growth assay, HCC2998; details: Homo sapiens, HCC 2998
Experimental: as §1, §2, §3, §4

[10] = tested on: KM-12 colorectal cancer cells; experiment: antitumor activity, sulforhodamine B cell growth assay, KM-12; details: Homo sapiens, KM12
Experimental: as §1, §2, §3, §4

[11] = tested on: NCI-H23 lung cancer cells; experiment: antitumor activity, sulforhodamine B cell growth assay, NCI-H23; details: Homo sapiens
Experimental: as §1, §2, §3, §4

[12] = tested on: NCI-H226 lung cancer cells; experiment: antitumor activity, sulforhodamine B cell growth assay, NCI-H226; details: Homo sapiens
Experimental: as §1, §2, §3, §4

[13] = tested on: DMS273 lung cancer cells; experiment: antitumor activity, sulforhodamine B cell growth assay, DMS273; details: Homo sapiens, DMS-273
Experimental: as §1, §2, §3, §4

[14] = tested on: DMS114 lung cancer cells; experiment: antitumor activity, sulforhodamine B cell growth assay, DMS114; details: Homo sapiens, DMS-114
Experimental: as §1, §2, §3, §4

[15] = tested on: LOX-IMVI melanoma cells; experiment: antitumor activity, sulforhodamine B cell growth assay, LOX-IMVI; details: Homo sapiens
Experimental: as §1, §2, §3, §4

[16] = tested on: OVCAR-3 cancer cells; experiment: antitumor activity, sulforhodamine B cell growth assay, OVCAR-3; details: Homo sapiens
Experimental: as §1, §2, §3, §4

[17] = tested on: OVCAR-4 cancer cells; experiment: antitumor activity, sulforhodamine B cell growth assay, OVCAR-4; details: Homo sapiens
Experimental: as §1, §2, §3, §4

[18] = tested on: ACHN kidney cancer cells; experiment: antitumor activity, sulforhodamine B cell growth assay, ACHN; details: Homo sapiens
Experimental: as §1, §2, §3, §4

[19] = tested on: MKN45 gastric cancer cells; experiment: antitumor activity, sulforhodamine B cell growth assay, MKN45; details: Homo sapiens, MKN-45
Experimental: as §1, §2, §3, §4

[20] = tested on: MKN74 gastric cancer cells; experiment: antitumor activity, sulforhodamine B cell growth assay, MKN74; details: Homo sapiens, MKN-74
Experimental: as §1, §2, §3, §4

[21] = tested on: PC-3 prostate cancer cells; experiment: antitumor activity, sulforhodamine B cell growth assay, PC-3
Experimental: as §1, §2, §3, §4

CC1=C(C)C(=O)C2=C(CC3(C)[C@H]4c5c(cc(C)c(C)c5C)C[C@@](C)(C(C)N3[C@H]2CNC(=O)C(C)C)N4C)C1=O (stereo partly drawn) [drawing 160]
GI50 ([1]; BSY-1 breast cancer cells, read-out: antitumor activity GI50 value: 50% growth inhibitory concentration): 34 nM | GI50 ([2]; HBC-5 breast cancer cells, read-out: antitumor activity GI50 value: 50% growth inhibitory concentration): 62 nM | GI50 ([3]; MCF-7 breast cancer cells, read-out: antitumor activity GI50 value: 50% growth inhibitory concentration): 52 nM | GI50 ([4]; MDA-MB-231 breast cancer cells, read-out: antitumor activity GI50 value: 50% growth inhibitory concentration): 130 nM | GI50 ([5]; U251 central nervous system cancer cells, read-out: antitumor activity GI50 value: 50% growth inhibitory concentration): 370 nM | GI50 ([6]; SF-268 central nervous system cancer cells, read-out: antitumor activity GI50 value: 50% growth inhibitory concentration): 370 nM | GI50 ([7]; SF-295 central nervous system cancer cells, read-out: antitumor activity GI50 value: 50% growth inhibitory concentration): 500 nM | GI50 ([8]; SF-539 central nervous system cancer cells, read-out: antitumor activity GI50 value: 50% growth inhibitory concentration): 180 nM | GI50 ([9]; HCC2998 colorectal cancer cells, read-out: antitumor activity GI50 value: 50% growth inhibitory concentration): 350 nM | GI50 ([10]; KM-12 colorectal cancer cells, read-out: antitumor activity GI50 value: 50% growth inhibitory concentration): 530 nM | GI50 ([11]; NCI-H23, NCl-H23 lung cancer cells, read-out: antitumor activity GI50 value: 50% growth inhibitory concentration): 290 nM | GI50 ([12]; NCI-H226, NCl-H226 lung cancer cells, read-out: antitumor activity GI50 value: 50% growth inhibitory concentration): 310 nM | GI50 ([13]; DMS273 lung cancer cells, read-out: antitumor activity GI50 value: 50% growth inhibitory concentration): 270 nM | GI50 ([14]; DMS114 lung cancer cells, read-out: antitumor activity GI50 value: 50% growth inhibitory concentration): 35 nM | GI50 ([15]; LOX-IMVI melanoma cells, read-out: antitumor activity GI50 value: 50% growth inhibitory concentration): 61 nM | GI50 ([16]; OVCAR-3 cervical cancer cells, read-out: antitumor activity GI50 value: 50% growth inhibitory concentration): 130 nM | GI50 ([17]; OVCAR-4 cervical cancer cells, read-out: antitumor activity GI50 value: 50% growth inhibitory concentration): 290 nM | GI50 ([18]; ACHN kidney cancer cells, read-out: antitumor activity GI50 value: 50% growth inhibitory concentration): 320 nM | GI50 ([19]; MKN45 gastric cancer cells, read-out: antitumor activity GI50 value: 50% growth inhibitory concentration): 300 nM | GI50 ([20]; MKN74 gastric cancer cells, read-out: antitumor activity GI50 value: 50% growth inhibitory concentration): 310 nM | GI50 ([21]; PC-3 prostate cancer cells, read-out: antitumor activity GI50 value: 50% growth inhibitory concentration): 290 nM

C#CCN1C/C=C/C(=C)COc2c(C)c3c(c4c2C[C@H]2[C@H]5c6c(cc(C)c(OC)c6O)C[C@@H]([C@H](C#N)N2C4CNC(=O)[C@@H]1C)N5C)OCO3 [Compound 35]
GI50 ([1]; BSY-1, drug exposure 48 hours, read-out: GI50 value: 50% growth inhibitory concentration): 1.3 nM | GI50 ([2]; HBC-5, drug exposure 48 hours, read-out: GI50 value: 50% growth inhibitory concentration): 2.7 nM | GI50 ([3]; MCF-7, drug exposure 48 hours, read-out: GI50 value: 50% growth inhibitory concentration): 0.87 nM | GI50 ([4]; MDA-MB-231, drug exposure 48 hours, read-out: GI50 value: 50% growth inhibitory concentration): 2.7 nM | GI50 ([5]; U251, drug exposure 48 hours, read-out: GI50 value: 50% growth inhibitory concentration): 2.5 nM | GI50 ([6]; SF-268, drug exposure 48 hours, read-out: GI50 value: 50% growth inhibitory concentration): 3.3 nM | GI50 ([7]; SF-295, drug exposure 48 hours, read-out: GI50 value: 50% growth inhibitory concentration): 3.8 nM | GI50 ([8]; SF-539, drug exposure 48 hours, read-out: GI50 value: 50% growth inhibitory concentration): 2.2 nM | GI50 ([9]; HCC2998, drug exposure 48 hours, read-out: GI50 value: 50% growth inhibitory concentration): 3.6 nM | GI50 ([10]; KM-12, drug exposure 48 hours, read-out: GI50 value: 50% growth inhibitory concentration): 3.8 nM | GI50 ([11]; NCI-H23, drug exposure 48 hours, read-out: GI50 value: 50% growth inhibitory concentration): 3.5 nM | GI50 ([12]; NCI-H226, drug exposure 48 hours, read-out: GI50 value: 50% growth inhibitory concentration): 2.7 nM | GI50 ([13]; DMS273, drug exposure 48 hours, read-out: GI50 value: 50% growth inhibitory concentration): 2.5 nM | GI50 ([14]; DMS114, drug exposure 48 hours, read-out: GI50 value: 50% growth inhibitory concentration): 1.2 nM | GI50 ([15]; LOX-IMVI, drug exposure 48 hours, read-out: GI50 value: 50% growth inhibitory concentration): 1.7 nM | GI50 ([16]; OVCAR-3, drug exposure 48 hours, read-out: GI50 value: 50% growth inhibitory concentration): 3.2 nM | GI50 ([17]; OVCAR-4, drug exposure 48 hours, read-out: GI50 value: 50% growth inhibitory concentration): 3.6 nM | GI50 ([18]; ACHN, drug exposure 48 hours, read-out: GI50 value: 50% growth inhibitory concentration): 3.1 nM | GI50 ([19]; MKN45, drug exposure 48 hours, read-out: GI50 value: 50% growth inhibitory concentration): 2.7 nM | GI50 ([20]; MKN74, drug exposure 48 hours, read-out: GI50 value: 50% growth inhibitory concentration): 4.5 nM | GI50 ([21]; PC-3, drug exposure 48 hours, read-out: GI50 value: 50% growth inhibitory concentration): 3.3 nM
